Assay results taken from patent US20250136574A1, “SELECTIVE AGENTS TARGETING MYCOBACTERIUM TUBERCULOSIS” (priority 2022, published 2025).
Values joined by “and” are separate entries in the source; they are usually repeats but may differ in a detail not shown here. Equal entries are not always repeated.

What was measured:
wild-type (WT) Mtb = format: cell-based, Mycobacterium tuberculosis
Vero TMPRSS2 cells = assay: Cytotoxicity at single concentration, CellTiter-Glo ATP quantitation; format: cell-based, African Green Monkey; details: 72 hours
Experimental: Cytotoxicity assays were conducted to measure toxicity of compounds at single concentration in Vero TMPRSS2 cells by using quantitation of ATP to indicate metabolically active cells. Vero cells (derived from African Green Monkey kidney epithelial tissue) were grown in Dulbecco's Modified Eagle Medium (DMEM) supplemented with 10% fetal bovine serum (FBS), 10 mM HEPES buffered saline, and 2 mM L-glutamine. 5,000 cells per well were seeded into a 96-well plate containing two-fold titrations of compounds. The concentration of DMSO was maintained at 0.5% for all wells to avoid toxicity. The plates were incubated for 72 hours, at which point they were acclimatized to room temperature for 30 minutes. 25 μL of the substrate/buffer solution from the Promega CellTiter-Glo Luminescent Cell Viability Assay kit was added to each well. The plates were shaken at a low orbital speed for 3 minutes and let rest at room temperature for 10 minutes, after which luminescence was measured using a BioTek Synergy H1 Microplate Reader H1M. The positive control was defined as wells containing cells without compounds.
Percent viability was calculated as follows: […]

Row | Compound | % Cell Viability Average (Vero TMPRSS2 cells; 100 uM) | % Cell Viability Replicate 1 (Vero TMPRSS2 cells; 100 uM) | % Cell Viability Replicate 2 (Vero TMPRSS2 cells; 100 uM) | other results
1 | CCCCCCC#Cc1cncc(-c2nnc(SC)n2C)c1 |  |  |  | IC50 (wild-type (WT) Mtb): 48 µM
2 | CCCCCCC#Cc1cncc(-c2nnc(SCc3cc(C(F)(F)F)cc(C(F)(F)F)c3)n2C)c1 |  |  |  | IC50 (wild-type (WT) Mtb): > 200 µM
3 | CCCCCCC#Cc1cncc(-c2nnc(SCc3ncc([N+](=O)[O-])n3C)n2C)c1 |  |  |  | IC50 (wild-type (WT) Mtb): 94 µM
4 | CCCCCCC#Cc1cncc(-c2nnc(SCCc3ccc(Cl)cc3)n2C)c1 |  |  |  | IC50 (wild-type (WT) Mtb): 8.2 µM
5 | CCCCCCC#Cc1cncc(-c2nnc(Sc3ccc(Cl)cc3)n2C)c1 |  |  |  | IC50 (wild-type (WT) Mtb): 13 µM
6 | CCCCCCC#Cc1cncc(-c2nnc(SCc3ccc(F)c([N+](=O)[O-])c3)n2C)c1 |  |  |  | IC50 (wild-type (WT) Mtb): 44 µM
7 | CCCCCCC#Cc1cncc(C(=O)NN)c1 |  |  |  | % Cell Viability Average (Vero TMPRSS2 cells; 125 uM): 36.66%; % Cell Viability Replicate 1 (Vero TMPRSS2 cells; 125 uM): 34.62%; % Cell Viability Replicate 2 (Vero TMPRSS2 cells; 125 uM): 38.69%
8 | CCCCCCC#Cc1cncc(-c2nnc(SCc3cccc([N+](=O)[O-])c3)n2C)c1 | 26.47% | 26.28% | 26.66% | 
9 | CCCCCCC#Cc1cncc(-c2nnc(SCCCn3ccc(=O)[nH]c3=O)n2C)c1 | 14.14% | 9.07% | 19.21% | 
10 | CCCCCCC#Cc1cncc(-c2nnc(SC[C@H]3O[C@@H](n4ccc(=O)[nH]c4=O)[C@@H]4OC(C)(C)O[C@@H]43)n2C)c1 | 1.10% | 1.02% | 1.19% | 
11 | CCCCCCC#Cc1cncc(-c2nnc(S)n2C)c1 | 0.76% | 0.70% | 0.82% | 
12 | CO[C@H]1[C@H](O[C@H]([C@H]2O[C@@H](n3ccc(=O)[nH]c3=O)[C@H](O)[C@@H]2O)[C@H](NCCCNC(=O)[C@H](CC(C)C)NC(=O)[C@@H](NC(=O)N[C@H](C(=O)O)C(C)C)[C@@H]2CCN=C(N)N2)C(=O)O)O[C@H](CN)[C@H]1O [Muraymycin D1, reference compound] |  |  |  | % Cell Viability Average (Vero TMPRSS2 cells; 50 uM): 92.38% and 91.22% and 89.63%; % Cell Viability Replicate 1 (Vero TMPRSS2 cells; 50 uM): 93.83% and 94.27% and 87.87%; % Cell Viability Replicate 2 (Vero TMPRSS2 cells; 50 uM): 90.92% and 88.18% and 91.39%
13 | [H]/N=C(/N)N[C@H]1[C@H](O)[C@@H](O)[C@H](O[C@@H]2O[C@@H](C)[C@](O)(C=O)[C@H]2O[C@@H]2O[C@@H](CO)[C@H](O)[C@@H](O)[C@@H]2NC)[C@@H](N/C(N)=N\[H])[C@@H]1O [Streptomycin, reference compound] |  |  |  | % Cell Viability Average (Vero TMPRSS2 cells): 110.98% and 106.86% and 105.48%; % Cell Viability Replicate 1 (Vero TMPRSS2 cells): 112.83% and 110.01% and 108.58%; % Cell Viability Replicate 2 (Vero TMPRSS2 cells): 109.14% and 103.70% and 102.37%
14 | CCCCCCC#Cc1cncc(-c2nnc(SCc3ccc(C(F)(F)F)cc3)n2C)c1 [drawing 96] | 70.35% | 74.34% | 66.36% | 
15 | CCCCCCC#Cc1cncc(-c2nnc(SCc3ccc(Cl)cc3)[nH]2)c1 [drawing 97] |  |  |  | % Cell Viability Average (Vero TMPRSS2 cells; 125 uM): 67.98%; % Cell Viability Replicate 1 (Vero TMPRSS2 cells; 125 uM): 68.39%; % Cell Viability Replicate 2 (Vero TMPRSS2 cells; 125 uM): 67.58%
16 | CCCCCCC#Cc1cncc(-c2nnc(SCc3ccc(C#N)cc3)n2C)c1 [drawing 98] | 66.33% | 75.34% | 57.31% | 
17 | CCCCCCC#Cc1cncc(-c2nnc(SCc3ccc(OC)cc3)n2C)c1 [drawing 99] | 54.63% | 60.30% | 48.95% | 
18 | CCCCCCC#Cc1cncc(-c2nnc(SCc3ccc(Cl)cc3)n2C)c1 [drawing 100] | 54.05% | 53.54% | 54.56% | 
19 | CCCCCCC#Cc1cncc(-c2nnc(SCc3ccc(Cl)c(F)c3)n2C)c1 [drawing 101] |  |  |  | % Cell Viability Average (Vero TMPRSS2 cells; 125 uM): 50.78%; % Cell Viability Replicate 1 (Vero TMPRSS2 cells; 125 uM): 49.91%; % Cell Viability Replicate 2 (Vero TMPRSS2 cells; 125 uM): 51.65%
20 | CCCCCCC#Cc1cncc(-c2nnc(SCc3ccc(Cl)cc3)n2C)c1 [drawing 102] | 42.78% | 47.04% | 38.53% | 

Row | Compound | % Cell Viability Average (Vero TMPRSS2 cells; 100 uM) | % Cell Viability Replicate 1 (Vero TMPRSS2 cells; 100 uM) | % Cell Viability Replicate 2 (Vero TMPRSS2 cells; 100 uM) | other results
21 | CCCCCCC#Cc1cncc(-c2nnc(SCc3ccc(Br)cc3)n2C)c1 [drawing 103] | 42.17% | 42.94% | 41.40% | 
22 | CCCCCCC#Cc1cncc(-c2nnc(SCc3cc([N+](=O)[O-])cc([N+](=O)[O-])c3)n2C)c1 [drawing 104] |  |  |  | % Cell Viability Average (Vero TMPRSS2 cells; 125 uM): 41.70%; % Cell Viability Replicate 1 (Vero TMPRSS2 cells; 125 uM): 42.56%; % Cell Viability Replicate 2 (Vero TMPRSS2 cells; 125 uM): 40.84%
23 | CCCCCCC#Cc1cncc(-c2nnc(SCc3ccc([N+](=O)[O-])cc3)n2C)c1 [drawing 106] | 34.59% | 39.61% | 29.56% | 
24 | CCCCCCC#Cc1cncc(-c2nnc(SCc3ccc(Cl)cc3)n2C2CC2)c1 [drawing 107] | 33.69% | 32.40% | 34.99% | 
25 | CCCCCCC#Cc1cncc(-c2nnc(SCc3ccc(C)cc3)n2C)c1 [drawing 109] | 20.46% | 20.58% | 20.35% | 
26 | CCCCCCC#Cc1cncc(-c2nnc(SCc3ccc(F)cc3)n2C)c1 [drawing 110] | 19.61% | 32.71% | 6.50% | 
27 | CCCCCCC#Cc1cncc(-c2nnc(SCc3ccc(Cl)c(Cl)c3)n2C)c1 [drawing 111] | 18.98% | 19.98% | 17.98% | 
28 | C#Cc1cncc(-c2nnc(SCc3ccc(Cl)cc3)n2C)c1 [drawing 113] | 3.10% | 3.02% | 3.18% | 
29 | CCCCCCC#Cc1cncc(-c2nnc(SCc3ccc(Cl)cc3)n2C)c1 [drawing 114] | 2.36% | 2.25% | 2.47% | 
30 | CCCCCCC#Cc1cccc(-c2nnc(SCc3ccc(Cl)cc3)n2C)c1 [drawing 115] | 1.77% | 1.97% | 1.58% | 
31 | CCCCCCC#Cc1cncc(-c2nnc(SCc3ccc(Cl)cc3)n2C)c1 [drawing 116] | 1.67% | 1.57% | 1.76% | 
32 | CCCCCCC#Cc1cncc(-c2nnc(SCc3ccc(Cl)cc3)n2C)c1 [drawing 117] | 1.56% | 1.41% | 1.70% | 
33 | CCCCCCC#Cc1cncc(-c2nnc(SCc3cccc(Cl)c3)n2C)c1 [drawing 118] |  |  |  | % Cell Viability Average (Vero TMPRSS2 cells; 125 uM): 1.53%; % Cell Viability Replicate 1 (Vero TMPRSS2 cells; 125 uM): 2.13%; % Cell Viability Replicate 2 (Vero TMPRSS2 cells; 125 uM): 0.94%
34 | CCCCCCC#Cc1cncc(-c2nnc(SCc3ccc(Cl)cc3)[nH]2)c1 [drawing 119] |  |  |  | % Cell Viability Average (Vero TMPRSS2 cells; 125 uM): 1.41%; % Cell Viability Replicate 1 (Vero TMPRSS2 cells; 125 uM): 1.43%; % Cell Viability Replicate 2 (Vero TMPRSS2 cells; 125 uM): 1.38%
35 | CCCCCCC#Cc1cncc(-c2nnc(SCc3ccc([N+](=O)[O-])o3)n2C)c1 [drawing 120] | 1.31% | 1.30% | 1.31% | 
36 | CCCCCCC#Cc1cncc(-c2nnc(SCCn3c([N+](=O)[O-])cnc3C)n2C)c1 [drawing 121] | 1.19% | 1.17% | 1.20% | 
37 | CCCCCCC#Cc1cncc(-c2nnc(SCc3cc(F)cc(F)c3)n2C)c1 [drawing 123] |  |  |  | % Cell Viability Average (Vero TMPRSS2 cells; 125 uM): 0.96%; % Cell Viability Replicate 1 (Vero TMPRSS2 cells; 125 uM): 0.98%; % Cell Viability Replicate 2 (Vero TMPRSS2 cells; 125 uM): 0.94%
38 | CCC(CC)COC(=O)[C@H](C)N[P@](=O)(OC[C@H]1O[C@@](C#N)(c2ccc3c(N)ncnn23)[C@H](O)[C@@H]1O)Oc1ccccc1 [remdesivir, reference compound] |  |  |  | % Cell Viability Average (Vero TMPRSS2 cells; 50 uM): 94.25% and 93.47% and 89.22%; % Cell Viability Replicate 1 (Vero TMPRSS2 cells; 50 uM): 94.32% and 91.48% and 89.25%; % Cell Viability Replicate 2 (Vero TMPRSS2 cells; 50 uM): 94.19% and 95.46% and 89.19%
39 | Capuramycin B [reference compound] |  |  |  | % Cell Viability Average (Vero TMPRSS2 cells; 50 uM): 92.07% and 91.55% and 94.73%; % Cell Viability Replicate 1 (Vero TMPRSS2 cells; 50 uM): 90.49% and 90.38% and 96.50%; % Cell Viability Replicate 2 (Vero TMPRSS2 cells; 50 uM): 93.64% and 92.73% and 92.96%
